We go through ten compounds from patent US9763954B2, “Therapeutical uses of eslicarbazepine” (BIAL-PORTELA & CA, S.A., priority 2007, dated 2017).

Entries after “also recorded” stand apart in the source; their conditions may differ.

For data set [1], the system named is NMRI mice. Kind of data set: Formalin paw test. Conditions: 100 mg/kg p.o., 120 minutes before the test; FIG. 6. The class given is in vivo. As to the method: The method, which detects analgesic/anti-inflammatory activity, follows that described by Wheeler-Aceto et al (Wheeler-Aceto et al., 1991). NMRI mice were given an intraplantar injection of 5% formalin (25 μl) into the posterior left paw. […] The time spent licking was counted for 15 minutes, beginning 15 minutes after injection of formalin. 10 mice were studied per group. The test was performed blind. S-Licarbazepine and R-licarbazepine were tested at the dose of 100 mg/kg p.o., administered 120 minutes before the test (i.e. […]), and compared with a vehicle control group in each experiment.

Data set [2] has as its system patients with drug-resistant epilepsy. Conditions: six months after initiation of therapy; 120 patients who had tried at least 3-4 other AEDs; cited from earlier work.
Data set [3] concerns P-gp or MRP. Conditions: cited from earlier work; for category of P-gp or MRP substrates: AEDs listed in the discussion.
Data set [4] deals with Multiple Resistant Proteins (MRP). Kind of data set: Brain/plasma ratio in mice pre-treated with the MRP inhibitor probenecid. The note with it: for substrate for MRP: concluded from probenecid pre-treatment.
Protocol: (§2) CD-1 mice weighing 30-35 g were maintained under controlled environmental conditions (23-24° C.) for at least 5 days before the experiment. […] In the second series of experiments, mice pre-treated with vehicle, verapamil (20 mg/kg) or probenecid (100 mg/kg) were given 30 min later intraperitoneally S-licarbazepine or R-licarbazepine (100 mg/kg). […] After collection of blood, plasma was obtained by centrifugation. Brain samples were homogenised in phosphate buffer (pH 5; 4 mL/g) followed by centrifugation and collection of the supernatant. Plasma and the tissue supernatant were stored frozen until analysis. The assay of S-licarbazepine and R-licarbazepine was performed using a HPLC-UV or LC-MS method following solid phase extraction.
Data set [5] can be described thus: Brain pharmacokinetics (brain access) after oral administration to CD-1 mice. Conditions: for presence of the opposite enantiomer in brain: analyte found after administration of the other enantiomer. The format is in vivo. An excerpt:
(§1) The following pharmacokinetic parameters for S-licarbazepine and R-licarbazepine were derived by non-compartmental analysis from the concentration versus time profiles: maximum observed plasma drug concentration (Cmax), time at which the Cmax occurred (tmax), area under the plasma concentration versus time curve (AUC) from time zero to the last sampling time at which concentrations were at or above the limit of quantification (AUC0-t) and AUC from time zero to infinity (AUC0-∞), elimination half-life (t1/2) and mean residence time (MRT). The pharmacokinetic parameters were determined using WinNonlin (version 4.0). Summary statistics of all data for each treatment and scheduled sampling times were reported, as appropriate, using the geometric mean, arithmetic mean, standard deviation (SD), coefficient of variation (CV), median, minimum and maximum. The statistical package SAS Version 8.2 or higher (SAS Institute, Cary, USA) was used in all computations when considered appropriate.

In data set [6] the target is P-glycoprotein (P-gp) (Mus musculus, UniProt P21447). Kind of data set: Brain/plasma ratio in mice pre-treated with the P-gp inhibitor verapamil. The note with it: for substrate for P-gp: concluded from verapamil pre-treatment; for effect of verapamil on brain/plasma ratio: verapamil 20 mg/kg 30 min before 100 mg/kg intraperitoneally, FIG. 2.
Protocol: as §2
Data set [7] concerns NMRI mice. Kind of data set: Corneal kindling procedure (acquisition of kindling). The class given is in vivo. The method, then: Vehicle (30% DMSO in distilled water) or the compounds dissolved in 30% DMSO were administered intraperitoneally twice daily. NMRI mice were stimulated twice daily (interstimulation interval 6-7 h) on twelve consecutive days. The electrostimulations with current intensities of 3 mA and duration of 3 s (pulse frequency 50 Hz) were applied via corneally placed saline-soaked copper electrodes. A stimulator was used to deliver a constant current regardless of the impedance of the test object. Seizure severity was ranked according to a modified system of Racine (Racine, 1972): 1, mild facial clonus and eye blinking; 2, severe facial clonus, head nodding, chewing; 3, unilateral or alternating forelimb clonus; 4, bilateral forelimb clonus with rearing […]; 5, bilateral forelimb clonus with rearing and falling; 6, tonic fore- and/or hindlimb extension.

The nature of data set [8]: Plasma pharmacokinetics after oral administration to CD-1 mice. The class given is in vivo.
Text: as §1

In data set [9] the test system is partial epilepsy refractory patients. The note with it: cited from earlier work.
The mark [10] stands for this setting: brain, after 350 mg/kg R-licarbazepine oral, CD-1 mice.
The mark [11] stands for this setting: 100 mg/kg twice daily, twelve days.
Setting [12] is: plasma, after 350 mg/kg R-licarbazepine oral, CD-1 mice.
[13] abbreviates: eslicarbazepine acetate 100 mg/kg, i.p., FIG. 3.

Sequence of P-glycoprotein (P-gp) (P21447 whole entry): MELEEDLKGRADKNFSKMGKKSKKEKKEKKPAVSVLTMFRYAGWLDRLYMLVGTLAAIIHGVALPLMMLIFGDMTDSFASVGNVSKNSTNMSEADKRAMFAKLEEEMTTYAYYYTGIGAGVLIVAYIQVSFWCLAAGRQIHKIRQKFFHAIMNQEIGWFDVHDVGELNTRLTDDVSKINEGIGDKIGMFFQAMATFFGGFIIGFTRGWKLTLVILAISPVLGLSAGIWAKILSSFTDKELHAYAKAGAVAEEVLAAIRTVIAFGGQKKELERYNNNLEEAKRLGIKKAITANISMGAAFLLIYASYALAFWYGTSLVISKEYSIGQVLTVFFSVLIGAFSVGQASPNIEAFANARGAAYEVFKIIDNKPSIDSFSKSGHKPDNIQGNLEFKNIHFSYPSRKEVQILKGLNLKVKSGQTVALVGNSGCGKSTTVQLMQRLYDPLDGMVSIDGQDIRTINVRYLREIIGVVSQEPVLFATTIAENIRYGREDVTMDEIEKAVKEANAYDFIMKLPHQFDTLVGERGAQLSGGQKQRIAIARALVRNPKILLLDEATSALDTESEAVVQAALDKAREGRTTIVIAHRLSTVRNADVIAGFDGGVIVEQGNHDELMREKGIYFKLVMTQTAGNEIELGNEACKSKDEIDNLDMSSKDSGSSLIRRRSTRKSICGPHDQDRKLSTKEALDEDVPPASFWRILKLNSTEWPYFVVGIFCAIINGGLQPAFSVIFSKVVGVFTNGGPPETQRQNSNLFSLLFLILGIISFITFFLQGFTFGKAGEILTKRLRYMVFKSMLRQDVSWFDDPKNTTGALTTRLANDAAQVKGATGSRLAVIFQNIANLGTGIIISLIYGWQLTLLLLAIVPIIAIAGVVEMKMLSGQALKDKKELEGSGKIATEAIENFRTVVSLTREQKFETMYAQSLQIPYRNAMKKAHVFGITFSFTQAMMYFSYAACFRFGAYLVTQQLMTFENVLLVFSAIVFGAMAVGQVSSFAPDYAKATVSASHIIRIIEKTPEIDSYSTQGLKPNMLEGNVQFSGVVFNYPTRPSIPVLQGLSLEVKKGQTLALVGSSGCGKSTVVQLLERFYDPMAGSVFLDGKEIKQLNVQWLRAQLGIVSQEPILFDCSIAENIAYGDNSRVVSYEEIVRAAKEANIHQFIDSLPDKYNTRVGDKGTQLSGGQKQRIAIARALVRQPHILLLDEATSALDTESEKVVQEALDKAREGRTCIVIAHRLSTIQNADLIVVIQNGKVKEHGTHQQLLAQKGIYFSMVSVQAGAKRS

For `NCC1(CC(=O)O)CCCCC1` [Gabapentin], in data set [1], the “licking time versus vehicle controls” value was “significantly (p<0.05) decreased”.

Regarding `CC[C@@H](C(N)=O)N1CCCC1=O` [Levetiracetam], the patients seizure-free in data set [2] is recorded as 32%. For the same compound, the “substrate for either P-gp or MRP1/2” value in data set [3] (verapamil and probenecid did not increase brain penetration) is “not to be a substrate”.

Broadly, the Cmax is the highest concentration seen after dosing. Broadly, the MRT is the average time that molecules of a dose stay in the body. Broadly, the t½ is the time in which the quantity being followed falls by half. Lower therefore signals rapid decline. As to `NC(=O)N1c2ccccc2C[C@@H](O)c2ccccc21` [R-licarbazepine], the “substrate for MRP” value in [4] is “not for MRP”. In addition, the “presence of the opposite enantiomer in brain” value in [5] is on record as “almost negligible”. For the same compound, in data set [5] (setting [10]), the “AUC0-∞” value is 60.037 µg·h/mL, the AUC(0-t) came out at 51.516 µg·h/mL, the Cmax was determined as 8533 ng/mL and the MRT turned out to be 11.34 h. In addition, in data set [5] (setting [10]), the tmax is on record as 0.75 h and the t½ is 7.91 h. In [6], the “substrate for P-gp” value is listed as “is a substrate” and the “effect of verapamil on brain/plasma ratio” value was “markedly increased; also recorded: equals that of S-licarbazepine in vehicle-treated animals”. The “effect on acquisition of kindling” value in [7] (100 mg/kg twice daily intraperitoneally, twelve days) is recorded as “no inhibitory effect”. In [7] (setting [11]), the “adverse effects during the course of the experiment” value is “no adverse effects were obvious”. The “mean seizure severity versus vehicle control group” value in data set [7] (100 mg/kg twice daily, S-lic: all sessions of first three days, R-lic: all sessions except afternoon of day 8) was “no significant differences”. In data set [7] (100 mg/kg twice daily, score 3 and 4 (S-lic), score 3, 4, 5 and 6 (R-lic), versus control), the “number of stimulations necessary to induce a seizure with a given severity score” value is listed as “did not differ”. In addition, the “animals that had reached the kindling criterion (at least one generalized seizure, score 4-6)” value in [7] (at termination of treatment, day 12) was “all of the treated animals”. For the same compound, the “absorption after oral administration” value in [8] (oral, CD-1 mice) is reported as “rapidly absorbed”. Besides, in [8] (setting [12]), the “AUC0-∞” value came to 231.716 µg·h/mL, the AUC(0-t) was determined as 203.705 µg·h/mL, the Cmax came to 69946 ng/mL and the MRT was found to be 10.12 h. In [8] (setting [12]), the tmax was 0.25 h and the t½ was 8.11 h. In addition, the “elimination half-life (t1/2)” value in [8] (plasma, approximate value stated for both enantiomers) was “≈ 8 h”. The “licking time versus vehicle controls” value in [1] is “did not attain statistical significance”.

Usually AUC(0-inf) stands for the area under the concentration-time curve extrapolated to infinity. Read a high AUC(0-inf) as more exposure. As to `NC(=O)N1c2ccccc2C[C@H](O)c2ccccc21` [S-licarbazepine, (S)-(+)-10,11-dihydro-10-hydroxy-5H dibenz/b,f/azepine-5-carboxamide], in data set [4], the “substrate for MRP” value is reported as “not a substrate”. Further, the “effect of probenecid on brain/plasma ratio” value in data set [4] (probenecid 100 mg/kg 30 min before 100 mg/kg intraperitoneally, FIG. 2) was “failed to affect”. In addition, the “brain/plasma ratio (considering either Cmax or AUC)” value in data set [5] (FIG. 1, compared with R-licarbazepine) is listed as “considerably greater”. Besides, the “presence of the opposite enantiomer in brain” value in data set [5] is recorded as “almost negligible”. Moreover, the “AUCbrain(S-Licarbazepine)/AUCbrain(R-Licarbazepine)” value in [5] (brain exposure ratio, each enantiomer given orally 350 mg/kg) was 1.9. Besides, the AUC(0-inf) came out at 111 µg·h/mL in data set [5] (mouse, brain, after 350 mg/kg S-licarbazepine oral, CD-1 mice) and 258 µg·h/mL in [8] (mouse, plasma, after 350 mg/kg S-licarbazepine oral, CD-1 mice). The AUC(0-t) in data set [5] (mouse, brain, after 350 mg/kg S-licarbazepine oral, CD-1 mice, read-out: AUC0-t) is 109 µg·h/mL; in data set [8] (CD-1, mouse, plasma, po, 350 mg/kg, plasma, after 350 mg/kg R-licarbazepine oral, CD-1 mice, read-out: AUC0-t) it was 4.58 µg·h/mL; in data set [8] (CD-1, mouse, plasma, po, 350 mg/kg, plasma, after 350 mg/kg S-licarbazepine oral, CD-1 mice, read-out: AUC0-t), 187 µg·h/mL. Moreover, the Cmax came to 12300 ng/mL in [5] (mouse, brain, after 350 mg/kg S-licarbazepine oral, CD-1 mice, read-out: Cmax); 1020 ng/mL in data set [8] (CD-1, mouse, plasma, po, 350 mg/kg, plasma, after 350 mg/kg R-licarbazepine oral, CD-1 mice, read-out: Cmax); 41300 ng/mL in data set [8] (CD-1, mouse, plasma, po, 350 mg/kg, plasma, after 350 mg/kg S-licarbazepine oral, CD-1 mice, read-out: Cmax). Moreover, the MRT is 7.84 h in data set [5] (mouse, brain, after 350 mg/kg S-licarbazepine oral, CD-1 mice, read-out: MRT); 10 to 12 h in [8] (CD-1, mouse, oral, 350 mg/kg, plasma, approximate range stated for both enantiomers, read-out: mean residence time (MRT)); 11.7 h in [8] (mouse, plasma, after 350 mg/kg S-licarbazepine oral, CD-1 mice, read-out: MRT). Besides, the tmax in data set [5] (mouse, brain, after 350 mg/kg S-licarbazepine oral, CD-1 mice, read-out: tmax) came to 1 h; in [8] (mouse, plasma, after 350 mg/kg S-licarbazepine oral, CD-1 mice, read-out: tmax), 0.25 h. Besides, the half-life in data set [5] (mouse, brain, after 350 mg/kg S-licarbazepine oral, CD-1 mice, read-out: t½ (converted)) was 4.87 h; in data set [8] (CD-1, mouse, oral, 350 mg/kg, plasma, approximate value stated for both enantiomers, read-out: elimination half-life (t1/2) (converted)), around 8 h; in data set [8] (mouse, plasma, after 350 mg/kg S-licarbazepine oral, CD-1 mice, read-out: t½ (converted)) it was 7.93 h. For the same compound, in [6], the “substrate for P-gp” value is “not a substrate”. In data set [6], the “effect of verapamil on brain/plasma ratio” value is on record as “failed to affect”. For the same compound, the “adverse effects during the course of the experiment” value in data set [7] (setting [11]) was “no adverse effects were obvious”. In addition, the “amount detectable in plasma” value in data set [8] (S-licarbazepine in plasma after administration of R-licarbazepine) is recorded as “small amounts”. The “absorption after oral administration” value in data set [8] (oral, CD-1 mice) is on record as “rapidly absorbed”.

On to `NC(=O)N1c2ccccc2C=Cc2ccccc21` [carbamazepine], for which the “category of P-gp or MRP substrates” value in data set [3] is recorded as “P-gp or MRP substrates”.

As for `CC(=O)O[C@H]1Cc2ccccc2N(C(N)=O)c2ccccc21` [eslicarbazepine acetate, (S)-(−)-10-acetoxy-10,11-dihydro-5H-dibenz/b,f/azepine-5-carboxamide], in [4] (setting [13]), the “effect of probenecid on S-licarbazepine brain/plasma ratio after eslicarbazepine acetate” value is reported as “failed to affect”. Moreover, the “patients that became seizure free” value in data set [9] (1 month after initiation of therapy) was “approximately 25%”. Further, in [9] (administered once-daily), the “efficacy in partial epilepsy refractory patients” value is “very efficacious”. Besides, in data set [6] (setting [13]), the “effect of verapamil on S-licarbazepine brain/plasma ratio after eslicarbazepine acetate” value is given as “failed to affect”.

For the compound `NC(=O)OCC(COC(N)=O)c1ccccc1` [felbamate], in data set [3], the “category of P-gp or MRP substrates” value is “P-gp or MRP substrates”.

On to `NC(=O)N1c2ccccc2CC(=O)c2ccccc21` [oxcarbazepine], for which the “category of P-gp or MRP substrates” value in data set [3] is given as “P-gp or MRP substrates”.

For `CCC1(c2ccccc2)C(=O)NC(=O)NC1=O` [phenobarbital], in [3], the “category of P-gp or MRP substrates” value is given as “P-gp or MRP substrates”.

Regarding `O=C1NC(=O)C(c2ccccc2)(c2ccccc2)N1` [phenytoin], in [3], the “category of P-gp or MRP substrates” value was “P-gp or MRP substrates”.
